{"source": "paper PMC9448872", "about": "(Frontiers in Cell and Developmental Biology, 2022)", "key": {"[1]": {"tested_on": "αvβ6 endocytosis in C76 cells", "assay": "Flow cytometry internalisation assay using TCEP reduction in C76 cells (inhibitors, siRNA)", "type": "cell-based", "set-up": "internalisation of A20FMDV2 with Clathrin inhibitor: concentration or dose not given beside the values"}, "[2]": {"tested_on": "C76 cells", "assay": "Transwell migration assay", "conditions": "Transwells coated with 0.5 μg/ml LAP, 16 h, vehicle control 547 ± 128, p < 0.05"}, "[3]": {"target": "T1, αvβ6 (Homo sapiens, UniProt P06756+P18564)", "T1 construct": "endogenous in cells; host or cells: panel of breast, pancreas and lung cell lines (C76, C102, C139, H322M, H441, H358, MCF10A, MCF10CA1α, MDAMB468, BT20, HPDE, NHBE)", "T1 sequence (P06756 31-889 limits assumed)": "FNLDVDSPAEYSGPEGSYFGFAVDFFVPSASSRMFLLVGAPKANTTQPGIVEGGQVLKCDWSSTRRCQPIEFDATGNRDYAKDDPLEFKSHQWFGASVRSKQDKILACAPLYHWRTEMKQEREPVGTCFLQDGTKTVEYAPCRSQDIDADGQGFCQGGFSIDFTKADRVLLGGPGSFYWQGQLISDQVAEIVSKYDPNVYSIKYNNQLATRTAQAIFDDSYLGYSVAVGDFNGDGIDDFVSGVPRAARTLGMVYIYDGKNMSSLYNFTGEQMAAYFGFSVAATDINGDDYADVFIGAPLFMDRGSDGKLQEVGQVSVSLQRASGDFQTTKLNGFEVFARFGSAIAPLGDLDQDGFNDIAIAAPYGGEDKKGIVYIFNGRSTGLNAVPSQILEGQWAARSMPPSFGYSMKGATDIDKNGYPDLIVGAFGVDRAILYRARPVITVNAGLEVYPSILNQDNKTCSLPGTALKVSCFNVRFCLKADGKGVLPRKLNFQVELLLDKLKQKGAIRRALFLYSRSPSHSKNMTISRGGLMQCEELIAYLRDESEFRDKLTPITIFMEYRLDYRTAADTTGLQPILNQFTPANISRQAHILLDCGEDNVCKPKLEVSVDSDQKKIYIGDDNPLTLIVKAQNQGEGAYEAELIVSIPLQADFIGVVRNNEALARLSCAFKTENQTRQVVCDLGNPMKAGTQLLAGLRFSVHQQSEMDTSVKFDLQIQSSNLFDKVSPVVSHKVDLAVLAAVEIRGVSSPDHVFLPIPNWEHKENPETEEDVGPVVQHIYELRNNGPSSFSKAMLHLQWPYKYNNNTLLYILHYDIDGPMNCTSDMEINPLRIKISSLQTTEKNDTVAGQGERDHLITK", "T1 sequence (P06756 891-1048 limits assumed)": "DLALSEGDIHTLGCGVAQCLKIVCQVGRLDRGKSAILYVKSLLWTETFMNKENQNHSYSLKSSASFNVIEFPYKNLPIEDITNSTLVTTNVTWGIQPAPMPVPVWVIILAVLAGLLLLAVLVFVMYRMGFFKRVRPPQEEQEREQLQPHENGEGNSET", "T1 sequence (P18564 22-788)": "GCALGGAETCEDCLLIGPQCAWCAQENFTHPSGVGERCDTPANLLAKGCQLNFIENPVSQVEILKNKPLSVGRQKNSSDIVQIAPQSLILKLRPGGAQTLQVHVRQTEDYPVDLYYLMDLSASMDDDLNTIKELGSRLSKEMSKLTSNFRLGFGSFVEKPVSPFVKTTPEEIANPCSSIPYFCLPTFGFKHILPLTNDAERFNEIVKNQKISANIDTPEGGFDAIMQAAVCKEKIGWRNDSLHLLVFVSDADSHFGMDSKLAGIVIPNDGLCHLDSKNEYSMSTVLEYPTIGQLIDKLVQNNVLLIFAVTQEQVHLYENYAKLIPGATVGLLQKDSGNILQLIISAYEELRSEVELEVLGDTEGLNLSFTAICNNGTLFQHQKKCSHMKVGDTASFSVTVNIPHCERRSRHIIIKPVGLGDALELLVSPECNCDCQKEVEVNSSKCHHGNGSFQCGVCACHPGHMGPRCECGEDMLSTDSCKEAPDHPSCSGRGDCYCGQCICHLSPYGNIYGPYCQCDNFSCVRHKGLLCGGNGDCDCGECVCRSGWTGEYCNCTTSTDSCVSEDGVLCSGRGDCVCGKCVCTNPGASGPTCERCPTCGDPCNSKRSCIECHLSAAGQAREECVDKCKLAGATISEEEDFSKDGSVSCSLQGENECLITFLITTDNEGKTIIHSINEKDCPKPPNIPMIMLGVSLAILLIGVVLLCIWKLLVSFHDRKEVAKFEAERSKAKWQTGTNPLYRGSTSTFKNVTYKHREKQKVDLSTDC", "conditions": "cited from earlier work"}, "[4]": {"tested_on": "C76 cells", "assay": "Cell viability by flow cytometry and DAPI uptake", "type": "cell-based", "conditions": "500nM of TCEP, DAPI uptake, mean, n = 2 (95% without TCEP)"}, "[5]": {"tested_on": "FMDV", "conditions": "cited from earlier work"}}}
{"smiles": "CN(C)CCCN1c2ccccc2Sc2ccc(Cl)cc21", "note": "[Chlorpromazine]", "values": [{"measurement": "internalisation of αvβ6-bound Cy5-SS-(GS)5-bioA20FMDV2 with clathrin inhibitor", "setting": "[1]; C76 cells pre-treated with 2 ug/ml Chlorpromazine, 20 min, n = 3, p < 0.05", "value": "39 ± 2.5", "unit": "%"}, {"measurement": "internalisation of A20FMDV2 with Clathrin inhibitor", "setting": "[1]; C76 cells, ARFGAP siRNA knockdown + clathrin inhibitor, n = 3", "value": "6.2 ± 3.5", "unit": "%"}, {"measurement": "internalisation of A20FMDV2 with Clathrin inhibitor", "setting": "[1]; C76 cells, ASAP siRNA knockdown + clathrin inhibitor, n = 3", "value": "9.4 ± 9.9", "unit": "%"}, {"measurement": "internalisation of A20FMDV2 with Clathrin inhibitor", "setting": "[1]; C76 cells, CBL siRNA knockdown + clathrin inhibitor, n = 3", "value": "14 ± 8", "unit": "%"}, {"measurement": "internalisation of A20FMDV2 with Clathrin inhibitor", "setting": "[1]; C76 cells, CBLB siRNA knockdown + clathrin inhibitor, n = 3", "value": "7.4 ± 3.9", "unit": "%"}, {"measurement": "internalisation of A20FMDV2 with Clathrin inhibitor", "setting": "[1]; C76 cells, CYTH2 siRNA knockdown + clathrin inhibitor, n = 3", "value": "13 ± 11.7", "unit": "%"}, {"measurement": "internalisation of A20FMDV2 with Clathrin inhibitor", "setting": "[1]; C76 cells, non-targeting (NT) siRNA + chlorpromazine, n = 3, not significant", "value": "14 ± 6.5", "unit": "%"}, {"measurement": "number of cells migrating towards LAP", "setting": "[2]", "value": "225 ± 73"}]}
{"smiles": "CCCCC[C@@H](O)[C@H]1C(=O)O[C@H](C)[C@@H](O)/C=C/C=C/C=C/C=C/C=C(\\C)[C@@H](O)C[C@H](O)C[C@H](O)C[C@H](O)C[C@H](O)C[C@H](O)C[C@@H]1O", "note": "[Filipin]", "values": [{"measurement": "internalisation of αvβ6-bound Cy5-SS-(GS)5-bioA20FMDV2 with caveolin inhibitor", "setting": "[1]; C76 cells pre-treated with 10 ug/ml Filipin, n = 3, p < 0.05", "value": "19.7 ± 3.9", "unit": "%"}, {"measurement": "reduction in the number of cells with internalised αVβ6-A20FMDV2", "setting": "[1]; C76 cells, caveolin inhibited (Filipin)", "value": 41, "unit": "%"}, {"measurement": "reduction in αvβ6 internalisation with caveolin inhibitor", "setting": "[3]", "value": "not statistically significant"}, {"measurement": "number of cells migrating towards LAP", "setting": "[2]", "value": "280 ± 51"}]}
{"smiles": "O=C(O)CCP(CCC(=O)O)CCC(=O)O", "note": "[TCEP, tris(2-carboxyethyl)phosphine]", "values": [{"measurement": "cells viable", "setting": "[4]", "value": 68, "unit": "%"}]}
{"smiles": "OC[C@H]1O[C@@](CO)(O[C@H]2O[C@H](CO)[C@@H](O)[C@H](O)[C@H]2O)[C@@H](O)[C@@H]1O", "note": "[sucrose]", "values": [{"measurement": "reduction of αvβ6 dependent FMDV infection", "setting": "[5]", "value": 95, "unit": "%"}]}
